According to patent US10183040B2, “Method for regulation of lipid metabolism” (PROFEAT BIOTECHNOLOGY CO., LTD., priority 2014, dated 2019):

Assay: Serum triacylglycerol, cholesterol, HDL and LDL assays of diabetes mice, Table 4 groups (FIG. 4A-4D)
Assay type: in vivo, db/db mice (C57BLKS/J-leprdb/leprdb)
Settings: 4 mg/kg/day, versus phosphate solution control
Procedure: (§1) FIG. 4A is a bar chart of the triacylglycerol assay of diabetes mice in accordance with the present invention, wherein the mice of control group are administered with phosphate buffer; the mice of treatment group are administered with 4 mg/kg/day composition A1; the mice of B01 group are administered with commercial 4 mg/kg/day ferrous glycine, and the mice of C01 group are administered with 4 mg/kg/day ferrous sulfate.
as §1, with “4B” for “4A”, “cholesterol” for “triacylglycerol”, “sulfate. […]” for “sulfate.”
The mice were daily and orally administered with the composition A1 at dosage of […] for 12 weeks. The body weights of the mice were measured every 3 days, and the serum biochemical values of the mice were measured every 4 weeks after orally administering with the composition A1. Triacylglycerol and cholesterol of the serum biochemical values were determined using a Biochem-Immuno Fully Autoanalyzer (Brea, Calif., USA) or a Chemistry Analyzer (Hitachi, Ltd., Japan). […]

ferrous sulfate [commercial ferrous sulfate]
triacylglycerol: effectively reduced

NCC(=O)[O-].NCC(=O)[O-].[Fe+2] [commercial ferrous glycine, ferrous glycine]
triacylglycerol: effectively reduced
